Results as given in patent US9523100B2, “Pesticidal compositions and related methods” (DOW AGROSCIENCES LLC, priority 2013, dated 2016).

Legend:
[1] = test system: Green Peach Aphid (GPA) (Myzus persicae) (MYZUPE); assay: Bioassay for Green Peach Aphid (GPA), foliar spray on cabbage seedlings; assay type: in vivo; details: 72 h, 200 ppm foliar spray on cabbage seedlings, graded after three days, Abbott corrected % control, read-out: GPA 200 ppm, % Control (or Mortality) rating
In short: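 Foliar spray test: 200 ppm solutions (0.025% Tween 20 in water, 20% acetone/methanol) applied to both leaf sides of aphid-infested cabbage seedlings. After 3 days at about 25° C, live aphids per plant were counted; control corrected to solvent check via Abbott's formula.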

[2] = test system: Sweetpotato Whitefly-Crawler (WF) (Bemisia tabaci) (BEMITA); assay: Insecticidal test for Sweetpotato Whitefly-Crawler (WF) in foliar spray assay on cotton plants; assay type: in vivo; details: 216 h, 200 ppm foliar spray on cotton plants, graded after 9 days, Abbott corrected % control, read-out: WF 200 ppm, % Control (or Mortality) rating
In short: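 Whitefly nymph control on egg-infested cotton (eggs laid 4–5 days pre-treatment), foliar spray at 200 ppm test compound. Live late-stage nymphs counted microscopically 9 days later at ~25 °C; control calculated by Abbott's formula relative to acetone-diluent-sprayed plants.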

CCN(C(=O)CC/C(=N/OCc1ccc(C(F)(F)F)nc1)c1cccs1)c1cn(-c2cccnc2)nc1Cl [FA37, (Z)-N-(3-Chloro-1-(pyridin-3-yl)-1H-pyrazol-4-yl)-N-ethyl-4-(thiophen-2-yl)-4-(((6-(trifluoromethyl)pyridin-3-yl)methoxy)imino)butanamide]
mortality at 200 ppm [1]: 0 to 80% | mortality at 200 ppm [2]: 80 to 100%

CCN(C(=O)C1CCCN(C(=O)C(C)C)C1)c1cn(-c2cccnc2)nc1Cl (centres unmarked) [FA3, N-(3-Chloro-1-(pyridin-3-yl)-1H-pyrazol-4-yl)-N-ethyl-1-isobutylylpiperidine-3-carboxamide]
mortality at 200 ppm [1]: 80 to 100% | mortality at 200 ppm [2]: 80 to 100%

CCN1CC(CC(=O)N(CC)c2cn(-c3cccnc3)nc2Cl)C1=O (centres unmarked) [Compound F84, N-(3-Chloro-1-(pyridin-3-yl)-1H-pyrazol-4-yl)-N-ethyl-2-(1-ethyl-2-oxoazetidin-3-yl)acetamide]
mortality at 200 ppm [1]: 80 to 100% | mortality at 200 ppm [2]: 80 to 100%

CN(C(=O)CCN1CCCC1=O)c1cn(-c2cccnc2)nc1Cl [Compound F107, N-(3-Chloro-1-(pyridin-3-yl)-1H-pyrazol-4-yl)-N-methyl-3-(2-oxopyrrolidin-1-yl)propanamide]
mortality at 200 ppm [1]: 80 to 100% | mortality at 200 ppm [2]: 80 to 100%

CCN(C(=O)C1CCN(C(=O)C(F)(F)F)CC1)c1cn(-c2cccnc2)nc1Cl [FA5, N-(3-Chloro-1-(pyridin-3-yl)-1H-pyrazol-4-yl)-N-ethyl-1-(2,2,2-trifluoroacetyl)piperidine-4-carboxamide]
mortality at 200 ppm [1]: 80 to 100% | mortality at 200 ppm [2]: 0 to 80%

CCN(C(=O)CCNC(=O)Cc1ccc(F)cc1)c1cn(-c2cccnc2)nc1Cl [Compound F46, N-(3-Chloro-1-(pyridin-3-yl)-1H-pyrazol-4-yl)-N-ethyl-3-(2-(4-fluorophenyl)acetamido) propanamide]
mortality at 200 ppm [1]: 0 to 80% | mortality at 200 ppm [2]: 80 to 100%

CCN(C(=O)CCC(=O)NCCC(F)(F)F)c1cn(-c2cccnc2)nc1Cl [Compound F73, N1-(3-Chloro-1-(pyridin-3-yl)-1H-pyrazol-4-yl)-N1-ethyl-N4-(3,3,3-trifluoropropyl) succinamide]
mortality at 200 ppm [1]: 80 to 100% | mortality at 200 ppm [2]: 80 to 100%

CCN(C(=O)CCN1CCCC1=O)c1cn(-c2cccnc2)nc1Cl [Compound F39, N-(3-Chloro-1-(pyridin-3-yl)-1H-pyrazol-4-yl)-N-ethyl-3-(2-oxopyrrolidin-1-yl)propanamide]
mortality at 200 ppm [1]: 80 to 100% | mortality at 200 ppm [2]: 80 to 100%

CCN(C(=O)C1CCC(=O)C1)c1cn(-c2cncc(F)c2)nc1C (centres unmarked) [FA71, N-Ethyl-N-(1-(5-fluoropyridin-3-yl)-3-methyl-1H-pyrazol-4-yl)-3-oxocyclopentanecarboxamide]
mortality at 200 ppm [1]: 0 to 80% | mortality at 200 ppm [2]: 0 to 80%

CCN(C(=O)C1CN(C(=O)CCC#N)C1)c1cn(-c2cccnc2)nc1Cl [FA16, N-(3-Chloro-1-(pyridin-3-yl)-1H-pyrazol-4-yl)-1-(3-cyanopropanoyl)-N-ethylazetidine-3-carboxamide]
mortality at 200 ppm [1]: 0 to 80% | mortality at 200 ppm [2]: 0 to 80%

CCN(C(=O)CC/C(C)=N/OCCC1CC1(F)F)c1cn(-c2cccnc2)nc1Cl (centres unmarked) [FA50, (E)-N-(3-Chloro-1-(pyridin-3-yl)-1H-pyrazol-4-yl)-4-((2-(2,2-difluorocyclopropyl)ethoxy)imino)-N-ethylpentanamide]
mortality at 200 ppm [1]: 80 to 100% | mortality at 200 ppm [2]: 80 to 100%

CN(C(=O)CN1CCCCC1=O)c1cn(-c2cccnc2)nc1Cl [Compound F77, N-(3-Chloro-1-(pyridin-3-yl)-1H-pyrazol-4-yl)-N-methyl-2-(2-oxopiperidin-1-yl)acetamide]
mortality at 200 ppm [1]: 80 to 100% | mortality at 200 ppm [2]: 80 to 100%

CCN(C(=O)CCC(=O)N1CCCC1)c1cn(-c2cccnc2)nc1Cl [Compound F106, N-(3-Chloro-1-(pyridin-3-yl)-1H-pyrazol-4-yl)-N-ethyl-4-oxo-4-(pyrrolidin-1-yl)butanamide]
mortality at 200 ppm [1]: 0 to 80% | mortality at 200 ppm [2]: 0 to 80%
